Measured values published in publication PMC7717600, “Novel [(N-alkyl-3-indolylmethylene)hydrazono]oxindoles arrest cell cycle and induce cell apoptosis by inhibiting CDK2 and Bcl-2: synthesis, biological evaluation and in silico studies” (Journal of Enzyme Inhibition and Medicinal Chemistry, 2020).

Experiments:
UO-31 = details: UO-31, 10 μM
NCI-H226 = details: NCI-H226, 10 μM
CCRF-CEM = details: 10 μM
LOX IMVI = assay: NCI SRB screening; format: cell-based, human; details: 10 μM
COLO 205 = assay: NCI SRB screening; format: cell-based, human; details: COLO 205, 10 μM
T-47D = details: 10 μM
ACHN = details: 10 μM
EKVX = details: 10 μM
NCI/ADR-RES = details: 10 μM
A498 = details: A498, 10 μM
SK-MEL-5 = details: SK-MEL-5, 10 μM
U251 = details: U251, 10 μM
SK-MEL-2 = details: SK-MEL-2, 10 μM
HOP-62 = details: HOP-62, 10 μM
SN12C = details: 10 μM
K-562 = details: K-562, 10 μM
OVCAR-3 = details: OVCAR-3, 10 μM
SF-539 = details: SF-539, 10 μM
786-0 = details: 786-0, 10 μM
MDA-MB-468 = details: MDA-MB-468, 10 μM
SF-295 = details: SF-295, 10 μM
HT29 = details: HT29, 10 μM
M14 = assay: NCI SRB screening; format: cell-based; details: M14, 10 μM
UACC-257 = details: UACC-257, 10 μM
PC-3 = assay: NCI SRB screening; format: cell-based, human; details: PC-3, 10 μM
HCC-2998 = assay: NCI SRB screening; format: cell-based, human; details: HCC-2998, 10 μM
MCF7 = details: MCF7, 10 μM
SK-MEL-28 = details: SK-MEL-28, 10 μM
OVCAR-5 = details: OVCAR-5, 10 μM
NCI-H322M = assay: NCI SRB screening; details: 10 μM
SF-268 = details: SF-268, 10 μM
KM12 = details: KM12, 10 μM
A549/ATCC = details: 10 μM
NCI-H522 = details: NCI-H522, 10 μM
UACC-62 = details: UACC-62, 10 μM
MALME-3M = details: 10 μM
IGROV1 = details: IGROV1, 10 μM
SW-620 = details: SW-620, 10 μM
OVCAR-8 = details: OVCAR-8, 10 μM
OVCAR-4 = details: OVCAR-4, 10 μM
BT-549 = details: BT-549, 10 μM
SNB-19 = details: SNB-19, 10 μM
MDA-MB-231 = assay: SRB anti-proliferative assay; format: cell-based; details: Homo sapiens; MDA-MB-231, SRB, mean ± SE of 3
Protocol: (§1) All the newly prepared target conjugates (7, 8a–c, 9 and 10a–e) were investigated for the prospective growth inhibitory actions against three different cancer cell lines viz.; A-549, MDA-MB-231, and HCT-116, using the sulforhodamine B colorimetric (SRB) assay. Staurosporine, a clinically used antitumor drug, was co-assayed as a reference agent for the experiment.
(§2) Examination of the cytotoxic activity for the target conjugates was carried out in accordance with the SRB colorimetric assay protocol, as described previously.
(§3) In vitro anti-proliferative activity assay
(§4) Cells at a concentration of 0.50 x
(§5) Sulfo-Rhodamine-B stain (SRB) assay.
(§6) cell to the wall of the plate.
(§7) wells were prepared for each individual dose).
(§8) Unbound dye was removed by four

HCT-116 = assay: SRB anti-proliferative assay; format: cell-based; details: Homo sapiens; HCT-116, SRB, mean ± SE of 3
Protocol: as §1, §2, §3, §4, §5, §6, §7, §8

C=CCn1cc(C=NN=C2C(=O)Nc3c(F)cccc32)c2ccccc21 [Compound 10c]
GI % (UO-31): 29% | GI % (NCI-H226): 56% | GI % (CCRF-CEM): 17% | GI % (LOX IMVI): – (Only GI % higher than 10% are shown) | GI % (COLO 205): – (Only GI % higher than 10% are shown) | GI % (T-47D): 50% | GI % (ACHN): 11% | GI % (EKVX): 15% | GI % (NCI/ADR-RES): – (Only GI % higher than 10% are shown) | GI % (A498): – (Only GI % higher than 10% are shown) | GI % (SK-MEL-5): – (Only GI % higher than 10% are shown) | GI % (U251): – (Only GI % higher than 10% are shown) | GI % (SK-MEL-2): – (Only GI % higher than 10% are shown) | GI % (HOP-62): – (Only GI % higher than 10% are shown) | GI % (SN12C): – (Only GI % higher than 10% are shown) | GI % (K-562): 20% | GI % (OVCAR-3): 13% | GI % (SF-539): – (Only GI % higher than 10% are shown) | GI % (786-0): – (Only GI % higher than 10% are shown) | GI % (MDA-MB-468): 54% | GI % (SF-295): – (Only GI % higher than 10% are shown) | GI % (HT29): – (Only GI % higher than 10% are shown) | GI % (M14): – (Only GI % higher than 10% are shown) | GI % (UACC-257): – (Only GI % higher than 10% are shown) | GI % (PC-3): 10% | GI % (HCC-2998): – (Only GI % higher than 10% are shown) | GI % (MCF7): 31% | GI % (SK-MEL-28): – (Only GI % higher than 10% are shown) | GI % (OVCAR-5): – (Only GI % higher than 10% are shown) | GI % (NCI-H322M): – (Only GI % higher than 10% are shown) | GI % (SF-268): – (Only GI % higher than 10% are shown) | GI % (KM12): – (Only GI % higher than 10% are shown) | GI % (A549/ATCC): – (Only GI % higher than 10% are shown) | GI % (NCI-H522): 34% | GI % (UACC-62): 15% | GI % (MALME-3M): – (Only GI % higher than 10% are shown) | GI % (IGROV1): 31% | GI % (SW-620): – (Only GI % higher than 10% are shown) | GI % (OVCAR-8): 11% | GI % (OVCAR-4): 22% | GI % (BT-549): – (Only GI % higher than 10% are shown) | GI % (SNB-19): – (Only GI % higher than 10% are shown) | IC50 (MDA-MB-231): 35.4 ± 1.92 µM | IC50 (HCT-116): 7.3 ± 0.47 µM

C=CCn1cc(C=NN=C2C(=O)Nc3ccc(Cl)cc32)c2ccccc21 [Compound 10d]
GI % (UO-31): 23% | GI % (NCI-H226): 41% | GI % (CCRF-CEM): – (Only GI % higher than 10% are shown) | GI % (LOX IMVI): – (Only GI % higher than 10% are shown) | GI % (COLO 205): – (Only GI % higher than 10% are shown) | GI % (T-47D): 30% | GI % (ACHN): – (Only GI % higher than 10% are shown) | GI % (EKVX): 33% | GI % (NCI/ADR-RES): – (Only GI % higher than 10% are shown) | GI % (A498): – (Only GI % higher than 10% are shown) | GI % (SK-MEL-5): – (Only GI % higher than 10% are shown) | GI % (U251): – (Only GI % higher than 10% are shown) | GI % (SK-MEL-2): – (Only GI % higher than 10% are shown) | GI % (HOP-62): – (Only GI % higher than 10% are shown) | GI % (SN12C): – (Only GI % higher than 10% are shown) | GI % (K-562): – (Only GI % higher than 10% are shown) | GI % (OVCAR-3): – (Only GI % higher than 10% are shown) | GI % (SF-539): – (Only GI % higher than 10% are shown) | GI % (786-0): – (Only GI % higher than 10% are shown) | GI % (MDA-MB-468): 36% | GI % (SF-295): – (Only GI % higher than 10% are shown) | GI % (HT29): – (Only GI % higher than 10% are shown) | GI % (M14): – (Only GI % higher than 10% are shown) | GI % (UACC-257): – (Only GI % higher than 10% are shown) | GI % (PC-3): – (Only GI % higher than 10% are shown) | GI % (HCC-2998): – (Only GI % higher than 10% are shown) | GI % (MCF7): 18% | GI % (SK-MEL-28): – (Only GI % higher than 10% are shown) | GI % (OVCAR-5): – (Only GI % higher than 10% are shown) | GI % (NCI-H322M): – (Only GI % higher than 10% are shown) | GI % (SF-268): – (Only GI % higher than 10% are shown) | GI % (KM12): – (Only GI % higher than 10% are shown) | GI % (A549/ATCC): – (Only GI % higher than 10% are shown) | GI % (NCI-H522): 17% | GI % (UACC-62): 19% | GI % (MALME-3M): – (Only GI % higher than 10% are shown) | GI % (IGROV1): 23% | GI % (SW-620): – (Only GI % higher than 10% are shown) | GI % (OVCAR-8): – (Only GI % higher than 10% are shown) | GI % (OVCAR-4): – (Only GI % higher than 10% are shown) | GI % (BT-549): – (Only GI % higher than 10% are shown) | GI % (SNB-19): – (Only GI % higher than 10% are shown) | IC50 (MDA-MB-231): 42.9 ± 2.51 µM | IC50 (HCT-116): 28.5 ± 1.59 µM

CCCn1cc(/C=N/N=C2\C(=O)Nc3ccc(OC(F)(F)F)cc32)c2ccccc21 [Compound 8b]
GI % (UO-31): 19% | GI % (NCI-H226): – (Only GI % higher than 10% are shown) | GI % (CCRF-CEM): 52% | GI % (LOX IMVI): – (Only GI % higher than 10% are shown) | GI % (COLO 205): – (Only GI % higher than 10% are shown) | GI % (T-47D): 35% | GI % (ACHN): 15% | GI % (EKVX): 40% | GI % (NCI/ADR-RES): 15% | GI % (A498): – (Only GI % higher than 10% are shown) | GI % (SK-MEL-5): – (Only GI % higher than 10% are shown) | GI % (U251): 13.32% | GI % (SK-MEL-2): – (Only GI % higher than 10% are shown) | GI % (HOP-62): 21% | GI % (SN12C): – (Only GI % higher than 10% are shown) | GI % (K-562): 33% | GI % (OVCAR-3): – (Only GI % higher than 10% are shown) | GI % (SF-539): – (Only GI % higher than 10% are shown) | GI % (786-0): – (Only GI % higher than 10% are shown) | GI % (MDA-MB-468): 11% | GI % (SF-295): – (Only GI % higher than 10% are shown) | GI % (HT29): 25% | GI % (M14): – (Only GI % higher than 10% are shown) | GI % (UACC-257): – (Only GI % higher than 10% are shown) | GI % (PC-3): 32% | GI % (HCC-2998): – (Only GI % higher than 10% are shown) | GI % (MCF7): 29% | GI % (SK-MEL-28): – (Only GI % higher than 10% are shown) | GI % (OVCAR-5): – (Only GI % higher than 10% are shown) | GI % (NCI-H322M): – (Only GI % higher than 10% are shown) | GI % (SF-268): – (Only GI % higher than 10% are shown) | GI % (KM12): – (Only GI % higher than 10% are shown) | GI % (A549/ATCC): 28% | GI % (NCI-H522): 19% | GI % (UACC-62): 11% | GI % (MALME-3M): – (Only GI % higher than 10% are shown) | GI % (IGROV1): – (Only GI % higher than 10% are shown) | GI % (SW-620): – (Only GI % higher than 10% are shown) | GI % (OVCAR-8): 15% | GI % (OVCAR-4): – (Only GI % higher than 10% are shown) | GI % (BT-549): – (Only GI % higher than 10% are shown) | GI % (SNB-19): – (Only GI % higher than 10% are shown) | IC50 (MDA-MB-231): 8.9 ± 0.61 µM | IC50 (HCT-116): 19.1 ± 1.34 µM
